ChEMBL document CHEMBL1128146, “Tricarbonyl 6 arene chromium (0) based antitumor agents” (Bioorg Med Chem Lett, 1995)
pIC50: −log10 of the molar value.

Tested on: HCT-116
Assay: Inhibitory activity against HCT116 tumor cell line
Type: functional, cell-based
Settings: Homo sapiens

Structure (SMILES)	pIC50
CS(=O)(=O)OCCCN(CCCOS(C)(=O)=O)c1ccccc1	7.00
CC(C)(C)[Si](C)(C)OCCN(CCO[Si](C)(C)C(C)(C)C)c1ccccc1	5.72
CS(=O)(=O)OCCN(CCOS(C)(=O)=O)c1ccccc1	7.60
